Measured values from patent US12364738B2, “Composition comprising at least one enzyme and at least one microbicidal molecule for the prevention or treatment of post-implant infections” (ONELIFE S.A., priority 2016, dated 2025).
Like-named read-outs stand apart in the source and are kept apart here. Marks after values point to notes of the source that are not given here.

What was measured:
[1] = cited from earlier work
[2] = tested on: isolate 1, S. aureus isolated from a pacemaker, biofilm; test: Confocal microscopic images with LIVE/DEAD staining, isolate 1; format: cell-based; settings: 24 h biofilm, 24 h treatment, ciprofloxacin 1 mg/L, FIGS. 4 and 5
Description: For isolate 1 (S. aureus isolated from a pacemaker on which a biofilm developed in the human body after implantation), confocal images were taken and correspond to FIGS. 3 to 5.
Before obtaining the different images, staining was carried out with the LIVE/DEAD kit (Invitrogen) for 30 minutes before rinsing with a PBS buffer.

[3] = tested on: isolate 1, S. aureus MRSA strain 80124430375 (pacemaker), biofilm; settings: static model, 24 h biofilm, 24 h treatment, ciprofloxacin 0.15 to 40 mg/L
Description: (§1) The measurement was conventionally carried out by absorption photometry (measurement at 590 nm with the Spectramax M4 equipment).
(§2) From each of the isolates given in table 1, biofilms (n=4) were developed over 24 hours at a temperature of 37° C. in the wells of a 96-well plate containing 200 μL of a TSB culture medium (Tryptic Soy Broth VWR) supplemented with 1% glucose and 2% sodium chloride.
(§3) Before proceeding with the measurement of the viability of the bacterial cells with resazurin, the plates containing the developed biofilms were washed with a PBS buffer (pH=7.4) then incubated with resazurin (0.01 mg/L) for 1 hour in the dark.

[4] = tested on: isolate 2, S. aureus MRSA strain 80224422456 (knee prosthesis), biofilm; settings: static model, 24 h biofilm, 24 h treatment, ciprofloxacin 0.15 to 40 mg/L
Description: as §1, §2, §3

[5] = tested on: isolate 3, S. aureus MRSA strain 80124474762 (knee screw), biofilm; settings: static model, 24 h biofilm, 24 h treatment, ciprofloxacin 0.15 to 40 mg/L
Description: as §1, §2, §3

[6] = tested on: isolate 4, S. epidermis strain 80224420266 (central venous catheter), biofilm; settings: static model, 24 h biofilm, 24 h treatment, ciprofloxacin 0.15 to 40 mg/L
Description: as §1, §2, §3

[7] = tested on: isolate 5, E. coli strain 6081 (urinary catheter), biofilm; settings: static model, 24 h biofilm, 24 h treatment, ciprofloxacin 0.15 to 40 mg/L
Description: as §1, §2, §3

[8] = tested on: isolate 6, E. coli strain 5701 (orthopaedic implant), biofilm; settings: static model, 24 h biofilm, 24 h treatment, ciprofloxacin 0.15 to 40 mg/L
Description: as §1, §2, §3

[9] = tested on: isolate 7, E. faecalis strain 9794 (urinary catheter), biofilm; settings: static model, 24 h biofilm, 24 h treatment, ciprofloxacin 0.15 to 40 mg/L
Description: as §1, §2, §3

[10] = tested on: isolate 8, E. faecalis strain 9781 (urinary catheter), biofilm; settings: static model, 24 h biofilm, 24 h treatment, ciprofloxacin 0.15 to 40 mg/L
Description: as §1, §2, §3

[11] = tested on: isolate 9, E. faecalis strain 9555 (urinary catheter), biofilm; settings: static model, 24 h biofilm, 24 h treatment, ciprofloxacin 0.15 to 40 mg/L
Description: as §1, §2, §3

[12] = tested on: isolate 10, P. aeroginosa strain DIV5508 (central venous catheter), biofilm; settings: static model, 24 h biofilm, 24 h treatment, ciprofloxacin 0.15 to 40 mg/L
Description: as §1, §2, §3

[13] = tested on: isolate 11, P. aeroginosa strain 04/190 (urinary catheter), biofilm; settings: static model, 24 h biofilm, 24 h treatment, ciprofloxacin 0.15 to 40 mg/L
Description: as §1, §2, §3

[14] = tested on: isolate 1, S. aureus isolated from a pacemaker, biofilm; settings: dynamic model, 48 h biofilm on PEG protrusions, 24 h treatment, agitation 120 RPM
Description: (§4) In order to judge the effectiveness of a post-implantation treatment carried out with a composition according to the invention, the viability of the bacteria was measured by following the development of the colour of the resazurin (7-Hydroxy-3H-phenoxazin-3-on 10-oxide), this colour changing according to the redox potential which depends on microbial activity. The measurement was conventionally carried out by absorption photometry (measurement at 590 nm with the Spectramax M4 equipment).
(§5) Before proceeding with the measurement of the viability of the bacterial cells with resazurin, the PEG plates with the protrusions containing the developed biofilms were incubated with resazurin for 2 hours in the dark.

[15] = tested on: isolate 5, E. coli isolated from a urinary catheter, biofilm; settings: dynamic model, 48 h biofilm on PEG protrusions, 24 h treatment, agitation 120 RPM
Description: as §4, §5

[16] = serum, after administration of the antibiotic, based on EUCAST, used as test concentration

In the case of `NCC[C@H](O)C(=O)N[C@@H]1C[C@H](N)[C@@H](O[C@H]2O[C@H](CN)[C@@H](O)[C@H](O)[C@H]2O)[C@H](O)[C@H]1O[C@H]1O[C@H](CO)[C@@H](O)[C@H](N)[C@H]1O` [amikacin], the “Cmin, minimum serum concentration” value ([1]; in vivo) is listed as 5000 ng/mL and the “Cmax, maximum serum concentration after administration of the antibiotic” value (shortened to “Cmax, maximum serum concentration”) [1, 16] is listed as 24000 ng/mL.
In the case of `C[C@@H](O)[C@H]1C(=O)N2C(C(=O)O)=C(S[C@@H]3CN[C@H](C(=O)N(C)C)C3)[C@H](C)[C@H]12` [meropenem], the “Cmin, minimum serum concentration” value ([1]; in vivo) is given as 100 ng/mL and the “Cmax, maximum serum concentration” value [1, 16] is given as 20000 ng/mL.
With `O=C(O)c1cn(C2CC2)c2cc(N3CCNCC3)c(F)cc2c1=O` [solution A, ciprofloxacin] the “live/dead state of the bacteria in confocal images” value [2] was “numerous bacteria are still alive”, the “Concentration of the antibiotic molecule in a solution comprising the antibiotic alone (solution A) to reduce the viability of the bacteria by 50% (EC50)” value [3] was >40^a mg/L and the “Concentration of the antibiotic molecule in a solution comprising the antibiotic alone (solution A) to reduce the viability of the bacteria by 50% (EC50)” value [4] was 0.8 µg/mL. The “Concentration of the antibiotic molecule in a solution comprising the antibiotic alone (solution A) to reduce the viability of the bacteria by 50% (EC50)” value [5] was 1.2 µg/mL, the “Concentration of the antibiotic molecule in a solution comprising the antibiotic alone (solution A) to reduce the viability of the bacteria by 50% (EC50)” value [6] was 1.77 µg/mL and the “Concentration of the antibiotic molecule in a solution comprising the antibiotic alone (solution A) to reduce the viability of the bacteria by 50% (EC50)” value [7] was 2.7 µg/mL. For the same compound, the “Concentration of the antibiotic molecule in a solution comprising the antibiotic alone (solution A) to reduce the viability of the bacteria by 50% (EC50)” value [8] was >40 µg/mL, the “Concentration of the antibiotic molecule in a solution comprising the antibiotic alone (solution A) to reduce the viability of the bacteria by 50% (EC50)” value [9] was >40 µg/mL and the “Concentration of the antibiotic molecule in a solution comprising the antibiotic alone (solution A) to reduce the viability of the bacteria by 50% (EC50)” value [10] was >40 µg/mL. The “Concentration of the antibiotic molecule in a solution comprising the antibiotic alone (solution A) to reduce the viability of the bacteria by 50% (EC50)” value [11] was >40 µg/mL, the “Concentration of the antibiotic molecule in a solution comprising the antibiotic alone (solution A) to reduce the viability of the bacteria by 50% (EC50)” value [12] was >40 µg/mL and the “Concentration of the antibiotic molecule in a solution comprising the antibiotic alone (solution A) to reduce the viability of the bacteria by 50% (EC50)” value [13] was >40 µg/mL. The “Concentration of the antibiotic molecule in a solution comprising the antibiotic alone (solution A) to reduce the viability of the bacteria by 50% (EC50)” value [14] was 0.7 µg/mL, the “Concentration of the antibiotic molecule in a solution comprising the antibiotic alone (solution A) to reduce the viability of the bacteria by 50% (EC50)” value [15] was 3.18 µg/mL and the “Cmin, minimum serum concentration” value [1, 16] was 600 ng/mL.
In the case of `COc1c(N2C[C@@H]3CCCN[C@@H]3C2)c(F)cc2c(=O)c(C(=O)O)cn(C3CC3)c12` [moxifloxacin], the “Cmax, maximum serum concentration” value [1, 16] is listed as 3600 ng/mL and the “Cmin, minimum serum concentration” value [1, 16] is listed as 300 ng/mL.
In the case of `NC[C@H]1O[C@H](O[C@H]2[C@H](O)[C@@H](O[C@H]3O[C@H](CO)[C@@H](O)[C@H](N)[C@H]3O)[C@H](N)C[C@@H]2N)[C@H](N)C[C@@H]1O` [tobramycin], the “Cmin, minimum serum concentration” value ([1]; in vivo) is given as 900 ng/mL and the “Cmax, maximum serum concentration” value [1, 16] is given as 4000 ng/mL.
